{
  "source": "patent US12522584B2",
  "about": "“3,4-dihydroisoquinoline compound and use thereof” (CSPC Zhongqi Pharmaceutical Technology (Shijiazhuang) Co., …, priority 2020, dated 2026)",
  "key": {"[1]": {"tested_on": "human acute monocytic leukemia cell line MV4-11", "assay": "MV4-11 MTT cell growth inhibition", "type": "cell-based", "conditions": "144 h, MV4-11 cells, MTT on Day 6", "protocol": "The complete medium required for the culture of human acute monocytic leukemia cell line MV4-11 (Shanghai Cell Bank) for experiment was IMDM (Cat NO. 12440-053, gibco) supplemented with 10% FBS (Cat NO. SA311.02, cellmax). The cells were cultured in an incubator at 37° C. with 5% CO2. The experiment reagents included dimethyl sulfoxide (Tianjin Kemiou Chemical Reagent Co., Ltd.) and MTT (THIAZOLYL BLUE TETRAZOLIUM BROMIDE, CAS. NO. 298-93-1, VWR). The control compound GSK3326595 for experiment was homemade or commercially available. The test compound was encapsulated and stored at 4° C.\nDimethyl sulfoxide was used as a vehicle to fully dissolve the test compound, thereby formulating a stock solution at a concentration of 5×10^−2 mol/L. The stock solution was stored at −20° C. With the complete medium as diluent, the test compound was subjected to gradient dilution to afford dilutions at different concentrations for standby application. In a 96-well culture plate, the suspension of the human acute monocytic leukemia cell line MV4-11 in the complete medium, at a volume of 100 μL/well (2×10^3 cells/well), was added. Afterwards, the dilutions at different concentrations of the corresponding test compounds (100 μL/well) were added, respectively. Each of the test compounds was provided with 8 concentration gradients and three replicates were used for each concentration. The plates were incubated in an incubator at 37° C. with 5% CO2. On Day 6, the plate was treated with MTT (20 μL/well) and incubated for 4 h in an incubator at 37° C. with 5% CO2. The supernatant was discarded. Dimethyl sulfoxide (150 μL/well) was added and mixed well by shaking. The OD value at 550 nm was measured with a microplate reader. Wells containing only cell suspensions without the test compounds were control wells, and wells containing only complete media were blank wells. The cell growth inhibition rate was calculated according to the following equation: Inhibition rate=(OD valuecontrol well−OD valuesample well)/(OD valuecontrol well−OD valueblank well)×100%. According to the inhibition rate at each concentration, the half maximal inhibitory concentration IC50 value was calculated using the SPSS software. 2. Enzymatic Experiment"}, "[2]": {"assay": "in vivo", "conditions": "male, SD, rat, po, 25 mg/kg", "description": "SD rats (male, 180 g to 200 g, Beijing Vital River Laboratory Animal Technology Co., Ltd.) were administered with the test compounds (solvent: 2% DMSO+98% (0.2 g/mL) hydroxypropyl-β-cyclodextrin, dosing volume: 5 mL/kg) by gavage. Blood was collected from the orbits of the rats at different points in time (0.25, 0.5, 1, 2, 4, 8, 24 h) after administration. The collected whole blood was anticoagulated with heparin sodium and centrifuged at 3000 g to obtain rat plasma samples, and methanol was added thereto to precipitate proteins. The drug concentration in rat plasma after administration was determined by HIPLC-MS/MS method. A drug concentration-time curve was plotted and the pharmacokinetic parameters were calculated. Pharmacokinetic behaviors of the compounds after administration in rats were described by means of the parameter estimation of non-compartmental model based on statistical moment theory."}, "[3]": {"tested_on": "MV4-11 xenografts", "assay": "In vivo efficacy in MV4-11 subcutaneous xenograft model", "conditions": "for d9 Tumor Volume (mm^3): 9th day after administration; for Tumor Weight / Tumor weight inhibition rate (%): 11 days; for Tumor Weight: tumors dissected at end; for Tumor weight inhibition rate (%): versus vehicle group; for d0 Tumor Volume (mm^3): d0, before grouping for administration (baseline); for RTV (d9): relative tumor volume = d9/d0 tumor volume", "description": "Experimental female NOD-SCID mice, SPF grade, 4 to 5 weeks, were purchased from Beijing Vital River Laboratory Animal Technology Co., Ltd. The mice were intraperitoneally injected with cyclophosphamide at a dose of 100 mg/kg one day before cell inoculation. The human acute monocytic leukemia cell line MV4-11 (1×10^7/0.1 ml/mouse) was subcutaneously inoculated into forelimb axilla of mice to establish a subcutaneous xenograft model. When the tumor volumes reached about 110 mm^3 (10 days after inoculation), the mice were equally grouped according to the tumor volume, with 5 mice in each group, i.e., vehicle group (2% DMSO+98% (0.2 g/mL) hydroxypropyl-β-cyclodextrin) and test drug groups. For the test drug groups, the dose of administration was 100 mg/kg, the dosing volume was 10 mL/kg, the dosing frequency was BID, the tumor diameters were measured twice per week, and the data was recorded. The mice were administered for 11 consecutive days. When the experiment ended, the tumors were dissected and weighed."}, "[4]": {"target": "PRMT5 (Homo sapiens (Human), UniProt O14744)", "sequence (O14744 whole entry)": "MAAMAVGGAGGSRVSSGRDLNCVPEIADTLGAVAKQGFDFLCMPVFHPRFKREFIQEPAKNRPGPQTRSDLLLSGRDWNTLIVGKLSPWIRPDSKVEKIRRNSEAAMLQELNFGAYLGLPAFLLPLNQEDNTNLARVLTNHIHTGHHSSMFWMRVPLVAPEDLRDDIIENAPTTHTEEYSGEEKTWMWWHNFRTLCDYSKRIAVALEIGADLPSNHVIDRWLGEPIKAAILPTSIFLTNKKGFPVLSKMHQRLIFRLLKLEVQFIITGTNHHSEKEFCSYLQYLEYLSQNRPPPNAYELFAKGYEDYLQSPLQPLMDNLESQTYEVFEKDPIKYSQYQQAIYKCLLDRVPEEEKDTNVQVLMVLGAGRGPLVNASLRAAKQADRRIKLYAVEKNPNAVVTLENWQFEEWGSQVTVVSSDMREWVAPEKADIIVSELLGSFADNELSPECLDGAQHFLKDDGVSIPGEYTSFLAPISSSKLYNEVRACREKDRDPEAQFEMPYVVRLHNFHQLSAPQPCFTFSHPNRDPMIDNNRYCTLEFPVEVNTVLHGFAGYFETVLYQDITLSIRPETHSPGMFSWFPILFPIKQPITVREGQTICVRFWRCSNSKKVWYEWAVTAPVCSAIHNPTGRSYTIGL", "sequence (Q9BQA1 whole entry partner)": "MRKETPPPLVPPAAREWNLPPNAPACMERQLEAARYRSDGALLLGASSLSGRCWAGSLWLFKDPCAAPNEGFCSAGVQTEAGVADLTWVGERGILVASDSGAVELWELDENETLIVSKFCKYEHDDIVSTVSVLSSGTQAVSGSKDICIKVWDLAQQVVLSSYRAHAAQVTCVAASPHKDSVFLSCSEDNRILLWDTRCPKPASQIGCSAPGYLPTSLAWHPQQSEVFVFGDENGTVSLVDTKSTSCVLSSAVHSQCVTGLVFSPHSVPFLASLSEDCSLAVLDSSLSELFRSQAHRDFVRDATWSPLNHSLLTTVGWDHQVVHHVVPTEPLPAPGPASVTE", "assay": "radiometric assay for PRMT5 based on FlashPlate technology", "type": "biochemical", "conditions": "PRMT5 5 nM, [3H]-SAM, 60 min at 25° C.; read-out: Enzymology (IC50)", "protocol": "The radiometric assay for PRMT5 based on FlashPlate technology was adopted to determine IC50 of the test compound.\nAfter dissolved in dimethyl sulfoxide respectively, the test compounds were added into an Echo Qualified 384-well plate and diluted to the desired concentrations. The diluted test compounds were transferred from the Echo Qualified 384-well plate to a 384-well reaction plate using an Echo 550 instrument, and dimethyl sulfoxide was transferred into both the control and blank wells. PRMT5 was added to 1×reaction buffer (including 10 mM Tris-HCl; pH 8.0; 0.01% Tween-20; 1 mM DTT) to form a 1.67×enzyme solution (at an enzyme concentration of 5 nM). A polypeptide substrate and [3H]-SAM were added to 1× reaction buffer to form a 2.5× substrate solution (the terminal concentrations of the substrates were 100 nM and 250 nM, respectively). At a volume of 15 μL/well, the 1.67× enzyme solution was added into wells of the 384-well reaction plate. In case of the blank wells, the enzyme solution was replaced with 15 μL of the 1× reaction buffer. The reaction plate was centrifuged at 1000 rpm for 1 min, and incubated at room temperature for 15 min. To each well of the 384-well reaction plate, 10 μL of the 2.5× substrate solution was added, centrifuged at 1000 rpm for 1 min, and reacted at 25° C. for 60 min. To each well of the 384-well reaction plate, 5 μL of reaction stop solution (which was […] cold SAM solution) was added to terminate the reaction. From each well of the test plate, 25 μL was measured and transferred to Flashplate and left at room temperature for 1 h. Thereafter, the Flashplate was washed with 0.1% Tween-20 solution three times. Readings were taken with MicroBeta 2. The data was converted into the inhibition rate data. Inhibition rate=(conversion ratecontrol well−conversion ratecompound well)/(conversion ratecontrol well−conversion rateblank well)×100%. The IC50curves were fitted using XLFit5.4.0.8. The fitting equation was as follows:Y=Bottom+(Top-Bottom)/(1+(IC50/X)^HillSlope)."}},
  "note": "Marks after values point to notes of the source that are not given here.",
  "data": [
    {"smiles": "CON=C(C)C(=O)N1CC2(CC(Nc3cc(C(=O)NC[C@H](O)CN4CCc5ccccc5C4)ncn3)C2)C1", "note": "[PR-10, (S)-N-(3-(3,4-dihydroisoquinolin-2(1H)-yl)-2-hydroxypropyl)-6-((2-(2-(methoxyimino)propanoyl)-2-azaspiro[3.3]heptan-6-yl)amino)pyrimidine-4-carboxamide]", "values": [
      {"measurement": "IC50", "setting": "[1]", "result": 0.664, "unit": "nM"},
      {"measurement": "AUC(0-t)", "setting": "[2]", "result": 2040, "unit": "ng·h/mL"},
      {"measurement": "Cmax", "setting": "[2]", "result": 1340, "unit": "ng/mL"},
      {"measurement": "Tmax", "setting": "[2]", "result": 25, "unit": "min"},
      {"measurement": "d9 Tumor Volume (mm^3)", "setting": "[3]; 100 mg/kg BID", "result": "34.3 ± 29.2**## mm^3"},
      {"measurement": "Tumor Weight", "setting": "[3]; 100 mg/kg BID", "result": "0.0153 ± 0.0105", "unit": "g"},
      {"measurement": "Tumor weight inhibition rate (%)", "setting": "[3]; 100 mg/kg BID", "result": 97.9, "unit": "%"},
      {"measurement": "animal death / drug toxicity observation", "setting": "[3]; 100 mg/kg BID, one animal died due to incorrect gavage", "result": "the death was not caused by drug toxicity"},
      {"measurement": "d0 Tumor Volume (mm^3)", "setting": "[3]", "result": "164.8 ± 32.5", "unit": "mm^3"},
      {"measurement": "RTV (d9)", "setting": "[3]; 100 mg/kg BID", "result": "0.2 ± 0.2"},
      {"measurement": "IC50", "setting": "[4]", "result": 16, "unit": "nM"}
    ]},
    {"smiles": "CON=C(C)C(=O)N1CCC2(CC1)CC(Nc1cc(C(=O)NC[C@H](O)CN3CCc4ccccc4C3)ncn1)C2", "note": "[PR-13, (S)-N-(3-(3,4-dihydroisoquinolin-2(1H)-yl)-2-hydroxypropyl)-6-((7-(2-(methoxyimino)propanoyl)-7-azaspiro[3.5]nonan-2-yl)amino)pyrimidine-4-carboxamide]", "values": [
      {"measurement": "IC50", "setting": "[1]", "result": 1.53, "unit": "nM"},
      {"measurement": "AUC(0-t)", "setting": "[2]", "result": 840, "unit": "ng·h/mL"},
      {"measurement": "Cmax", "setting": "[2]", "result": 516, "unit": "ng/mL"},
      {"measurement": "Tmax", "setting": "[2]", "result": 50, "unit": "min"},
      {"measurement": "d9 Tumor Volume (mm^3)", "setting": "[3]; 100 mg/kg BID", "result": "69.7 ± 22.9***# mm^3"},
      {"measurement": "Tumor Weight", "setting": "[3]; 100 mg/kg BID", "result": "0.0679 ± 0.0225", "unit": "g"},
      {"measurement": "Tumor weight inhibition rate (%)", "setting": "[3]; 100 mg/kg BID", "result": 90.6, "unit": "%"},
      {"measurement": "d0 Tumor Volume (mm^3)", "setting": "[3]", "result": "165.4 ± 30.2", "unit": "mm^3"},
      {"measurement": "RTV (d9)", "setting": "[3]; 100 mg/kg BID", "result": "0.4 ± 0.1"},
      {"measurement": "IC50", "setting": "[4]", "result": 16, "unit": "nM"}
    ]}
  ]
}
